This note sets out measurements from PubChem BioAssay AID687022 (Broad Institute, 2013).

Active and inactive are the calls of the source.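 Rule for the calls: active = Fitted curve of melting temperature shift crosses the 1.0 threshold at or below the sample's highest valid tested concentration; inconclusive = Flat fit with activity 30 to 70, or invalid fit; inactive = Opposite direction, flat within 30, or no crossing.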

The target in the experiment is Fibroblast growth factor 22 (Homo sapiens) (UniProt Q9HCT0). Description: FGF22 ligand-induced thermal stabilization – biophysical, thermal shift, cherry-pick, FGF22 synaptogenesis inhibitor project, dose response (AID 687022). The following applies: recombinant FGF22 thermal shift, SYPRO orange melting.
Fibroblast growth factor 22 (Homo sapiens), sequence (Q9HCT0 whole entry, looked up): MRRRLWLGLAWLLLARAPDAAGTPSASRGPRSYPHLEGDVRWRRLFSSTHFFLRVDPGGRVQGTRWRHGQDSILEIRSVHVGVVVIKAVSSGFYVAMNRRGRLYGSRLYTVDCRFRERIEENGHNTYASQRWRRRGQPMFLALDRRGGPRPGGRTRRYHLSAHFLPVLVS

With `C[C@@H]1CN([C@@H](C)CO)C(=O)c2cc(NS(=O)(=O)c3ccc(Cl)cc3)ccc2O[C@@H]1CN(C)S(=O)(=O)c1ccc(F)cc1`, the AbsAC1 (concentration giving Tm-shift threshold 1.0) is 21.9 µM. Turning to `CN1C(=O)c2cc(NC(=O)c3cccc(F)c3)ccc2OC[C@@H]2O[C@H](CC(=O)N3CCc4ccccc4C3)CC[C@@H]21`, the AbsAC1 (concentration giving Tm-shift threshold 1.0) is 17.2 µM. Regarding `CCN1C(=O)C(CC(=O)Nc2ccc(F)cc2)N(Cc2ccc3c(c2)OCO3)C1=S` (stereo not drawn), the AbsAC1 (concentration giving Tm-shift threshold 1.0) was 2.83 µM. Consider `O=C(N/N=C/c1c(O)ccc2ccccc12)c1[nH]ncc1Br`, for which the AbsAC1 (concentration giving Tm-shift threshold 1.0) is 23.7 µM.

In the case of `O=S(=O)(Nc1cccc(-n2cnnn2)c1)c1ccc(Cl)cc1`, the AbsAC1 (concentration giving Tm-shift threshold 1.0) was 27.6 µM.

For `O=C(N/N=C/c1ccc(C(F)(F)F)cc1)c1ccc(O)cc1`, the AbsAC1 (concentration giving Tm-shift threshold 1.0) is 2.48 µM. On to `O=C(NCC[C@@H]1CC[C@@H](NC(=O)Nc2cc(F)ccc2F)[C@@H](CO)O1)Nc1ccc(F)cc1`, for which the AbsAC1 (concentration giving Tm-shift threshold 1.0) is 18.1 µM.

For the compound `CC(=O)c1c(C)nc(-c2ccc(OCC(=O)Nc3ccc(F)cc3)cc2)n1O`, the AbsAC1 (concentration giving Tm-shift threshold 1.0) is 16.3 µM.

Consider `CCn1c2ccccc2c2cc(/C=N/NC(=O)c3ccncc3)ccc21`, for which the AbsAC1 (concentration giving Tm-shift threshold 1.0) was 25 µM.

As for `Cc1cc(C)n(-c2ccc(C(=O)Nc3ccc(S(=O)(=O)N(C)C)cc3)cc2)n1`, the AbsAC1 (concentration giving Tm-shift threshold 1.0) is 9.32 µM. Next, `CC(=O)C1=C(O)C(=O)N(c2ccc(S(=O)(=O)Nc3nccs3)cc2)C1c1ccc(F)cc1` (stereo not drawn): > 19.5 µM (inactive).

As to `COc1cccc(NC(=O)N(C)C[C@H]2Oc3cc(-c4ccccc4F)ccc3S(=O)(=O)N([C@H](C)CO)C[C@H]2C)c1`, the AbsAC1 (concentration giving Tm-shift threshold 1.0) is 4.99 µM. Regarding `NS(=O)(=O)c1ccc(NC(=O)Nc2cccc(Cl)c2)cc1`, the AbsAC1 (concentration giving Tm-shift threshold 1.0) is 16.8 µM. Consider `O=C(O)c1ccccc1Nc1ccc([N+](=O)[O-])cc1`, for which the AbsAC1 (concentration giving Tm-shift threshold 1.0) is 16.2 µM. For the compound `Cc1noc(C)c1NC(=O)N[C@@H]1C=C[C@H](CC(=O)Nc2ccc(-c3ccccc3)cc2)O[C@@H]1CO`, the AbsAC1 (concentration giving Tm-shift threshold 1.0) was 5.28 µM.

As to `CC(C)CC(=O)Nc1ccc(C(=O)CN2C(=O)NC3(CCOc4ccccc43)C2=O)cc1` (stereo not drawn), the AbsAC1 (concentration giving Tm-shift threshold 1.0) was 6.42 µM.

Consider `CCN1C(=O)C(CC(=O)Nc2ccc(OC)cc2)N(CCc2ccc(OC)cc2)C1=S` (stereo not drawn), for which the AbsAC1 (concentration giving Tm-shift threshold 1.0) is 6.95 µM.

As to `O=S(=O)(Nc1nnc(C(F)(F)F)s1)c1ccc(Cl)cc1`, the AbsAC1 (concentration giving Tm-shift threshold 1.0) is 3.42 µM. Turning to `Cn1cc([N+](=O)[O-])c(C(=O)Nc2ccc3nc(-c4ccccc4)[nH]c3c2)n1`, the AbsAC1 (concentration giving Tm-shift threshold 1.0) is 16 µM. Take `Cc1nc2ccccc2c2oc(C(=O)NCc3ccc4c(c3)OCO4)cc12`: the AbsAC1 (concentration giving Tm-shift threshold 1.0) was 2.57 µM. As for `COC(=O)CN1C(=S)N(c2ccc(F)cc2)C(=O)C1CC(=O)Nc1ccccc1` (stereo not drawn), the AbsAC1 (concentration giving Tm-shift threshold 1.0) was 16.1 µM. Take `O=C(C[C@H]1CC[C@H]2[C@@H](COC[C@@H](O)CN2S(=O)(=O)c2cccc(F)c2)O1)Nc1ccc(-c2ccccc2)cc1`: the AbsAC1 (concentration giving Tm-shift threshold 1.0) is > 38 µM (inactive). Next, `COc1cc(NC(=O)c2cnc(N)o2)cc(C(=O)Nc2cccc(C(F)(F)F)c2)c1`: 3.44 µM; `O=C(Nc1ccc(Cl)cc1)N[C@H]1CC[C@H](CCNC(=O)c2cc(Cl)cc(Cl)c2)O[C@@H]1CO`: 34.9 µM.

For `COC(=O)c1cc(OC)c(OC)cc1NC(=O)c1ccccc1C`, the AbsAC1 (concentration giving Tm-shift threshold 1.0) is 16.7 µM. In the case of `COc1ccc(NC(=O)N[C@H]2CC[C@@H](CCn3cc(-c4ccc(OC)cc4)nn3)O[C@@H]2CO)cc1` it was > 42 µM (inactive); in that of `O=C(CNC(=O)c1ccc(S(=O)(=O)N2CCCC2)cc1)N/N=C/c1ccc(F)cc1`, 16.5 µM; in that of `CC(=O)Nc1ccc(S(=O)(=O)N(CCc2ccccc2)CC(=O)N/N=C/c2ccc(C(=O)O)cc2)cc1`, 7.42 µM.

Consider `Cc1nc2c(C)cccc2cc1C(=O)N/N=C/c1ccc(O)cc1`, for which the AbsAC1 (concentration giving Tm-shift threshold 1.0) is 14.8 µM.

With `CCCOc1ccc(NC(=O)CC2C(=O)N(C)C(=S)N2Cc2ccc3c(c2)OCO3)cc1` (stereo not drawn), the AbsAC1 (concentration giving Tm-shift threshold 1.0) is 3.25 µM. Consider `CN1C(=O)c2cc(NC(=O)c3cccc(F)c3)ccc2OC[C@H]2O[C@@H](CC(=O)N3CCc4ccccc4C3)CC[C@H]21`, for which the AbsAC1 (concentration giving Tm-shift threshold 1.0) was 18.4 µM. On to `O=C(N/N=C/c1ccc[nH]1)c1cc2ccccc2cc1O`, for which the AbsAC1 (concentration giving Tm-shift threshold 1.0) was 3.23 µM. Next, `COc1cccc(NC(=O)CN(C)C(=O)c2cn(-c3ccccc3)nc2-c2cccs2)c1`: 6.16 µM; `O=C(N/N=C/c1ccc(O)c(O)c1)N/N=C/c1ccc(O)c(O)c1`: 7.88 µM.

Take `O=C(Nc1ccc(F)cc1)N[C@@H]1CC[C@H](CCn2cc(-c3ccccc3F)nn2)O[C@H]1CO`: the AbsAC1 (concentration giving Tm-shift threshold 1.0) was 10.3 µM. With `O=S(=O)(Nc1cc(Cl)ccc1-n1cncn1)c1ccc(F)cc1`, the AbsAC1 (concentration giving Tm-shift threshold 1.0) is 15.2 µM. Consider `O=C(CCNC(=O)c1ccccc1Cl)Nc1nc2ccc(F)cc2s1`, for which the AbsAC1 (concentration giving Tm-shift threshold 1.0) is 9.92 µM. `CC(=O)c1ccc(NC(=O)c2noc(C(C)C)c2[N+](=O)[O-])cc1`: the AbsAC1 (concentration giving Tm-shift threshold 1.0) was 3.85 µM.

On to `O=C(O)C[C@@H]1C[C@H]2c3cc(NC(=O)Nc4ccc(C(F)(F)F)cc4)ccc3O[C@H]2[C@@H](CO)O1`, for which the AbsAC1 (concentration giving Tm-shift threshold 1.0) is > 10 µM (inactive). Next, `O=C(Cn1cc(COc2ccc(Br)cc2)nn1)c1ccc(O)cc1`: 7.63 µM; `O=C(Nc1nc(-c2ccccn2)cs1)c1cc2ccccc2o1`: 16.1 µM; `O=C(Nc1ccc(F)cc1)N[C@H]1CC[C@@H](CCn2cc(-c3ccccc3F)nn2)O[C@H]1CO`: 10.5 µM. On to `Nc1nonc1-n1nnc(C(=O)N/N=C/c2cccnc2)c1CSc1ccc(Cl)cc1`, for which the AbsAC1 (concentration giving Tm-shift threshold 1.0) was 3.46 µM. Turning to `COc1ccc2c(CC(=O)NNC(=O)c3ccc(O)cc3)coc2c1`, the AbsAC1 (concentration giving Tm-shift threshold 1.0) was 3.22 µM. Turning to `CS(=O)(=O)N1CC(=O)N2[C@H](CO)[C@@H](c3ccc(C#CCc4ccccc4)cc3)[C@H]2C1`, the AbsAC1 (concentration giving Tm-shift threshold 1.0) is 37.5 µM.

For `O=C(NCCc1c[nH]c2ccccc12)c1ccc(Cl)cc1`, the AbsAC1 (concentration giving Tm-shift threshold 1.0) is 2.49 µM. Regarding `COc1ccc(/C=N/NC(=O)c2ccc(NS(=O)(=O)c3cccs3)cc2)cc1`, the AbsAC1 (concentration giving Tm-shift threshold 1.0) was 7.28 µM. As to `O=C(Nc1nccs1)c1ccc(S(=O)(=O)NCc2cccs2)cc1`, the AbsAC1 (concentration giving Tm-shift threshold 1.0) is 11.1 µM. Turning to `O=[N+]([O-])c1cccc(S(=O)(=O)Nc2ccc(-c3ccc(N4CCCC4)nn3)cc2)c1`, the AbsAC1 (concentration giving Tm-shift threshold 1.0) is 19.1 µM.

Take `O=C(Nc1ccc(F)c(Cl)c1)C1CCCN(C2=NS(=O)(=O)c3ccccc32)C1` (stereo not drawn): the AbsAC1 (concentration giving Tm-shift threshold 1.0) is > 38 µM (inactive). Next, `COc1ccc(N(CC(=O)N/N=C/c2ccc(OC)c(OC)c2)S(=O)(=O)c2ccccc2)cc1`: 18.5 µM; `O=C1C(=O)C(c2ccccc2)C(=O)C1c1ccccc1` (stereo not drawn): 10.7 µM; `O=C(CNC(=O)c1cccc(Br)c1)N/N=C/c1cc(Br)cc(Br)c1O`: > 38 µM (inactive). In the case of `C[C@@H]1CN([C@@H](C)CO)S(=O)(=O)c2ccc(-c3ccncc3)cc2O[C@@H]1CN(C)C(=O)Nc1ccc(F)cc1` it was 4.72 µM. As for `C[C@H]1CN([C@@H](C)CO)S(=O)(=O)c2ccc(-c3ccncc3)cc2O[C@H]1CN(C)C(=O)Nc1ccc(C(F)(F)F)cc1`, the AbsAC1 (concentration giving Tm-shift threshold 1.0) is 11.8 µM. Consider `C[C@H](CO)N1C[C@H](C)[C@@H](CN(C)C(=O)C2CC2)OCc2ccccc2-c2ccccc2C1=O`, for which the AbsAC1 (concentration giving Tm-shift threshold 1.0) was 35.4 µM. In the case of `CC1(C(=O)NS(=O)(=O)c2ccc(Cl)cc2)CCN1C(=O)Cc1ccc(Cl)cc1Cl` (stereo not drawn) it was > 10 µM (inactive). In the case of `S=C(NCCN1CCOCC1)Nc1ccc(-c2nc3ccccc3[nH]2)cc1` it was 7.5 µM; in that of `S=C(Nc1ccc(Cl)cc1)Nc1ccc2cn[nH]c2c1`, 3.25 µM. Consider `O=C(N/N=C/c1c[nH]c2ccccc12)c1cccc(O)c1`, for which the AbsAC1 (concentration giving Tm-shift threshold 1.0) is 2.9 µM.

Turning to `C[C@@H]1CN([C@H](C)CO)C(=O)c2cc(NC(=O)Nc3ccc(C(F)(F)F)cc3)ccc2O[C@@H]1CN(C)Cc1ccc(C(=O)O)cc1`, the AbsAC1 (concentration giving Tm-shift threshold 1.0) was 11.5 µM. With `C[C@H](CO)N1C[C@H](C)[C@H](CN(C)C(=O)Nc2ccc3c(c2)OCO3)Oc2cc(C3=CCCC3)ccc2S1(=O)=O`, the AbsAC1 (concentration giving Tm-shift threshold 1.0) was 36.2 µM. In the case of `CCC(=O)Nc1nc(C)c(-c2csc(Nc3ccccn3)n2)s1` it was 4.91 µM; in that of `COc1ccc(C(=O)N2CCCCC2)cc1S(=O)(=O)Nc1cccc(C(=O)O)c1`, 9.12 µM. As to `Cc1ccc(C(=O)Nc2nc(=O)n(C(=O)C3CC3)s2)cc1`, the AbsAC1 (concentration giving Tm-shift threshold 1.0) is 11.1 µM. Turning to `O=C(Nc1ccccc1)O/N=C/c1ccc(F)cc1`, the AbsAC1 (concentration giving Tm-shift threshold 1.0) is 20.3 µM.

With `O=C(Nc1ccc(F)cc1)N[C@H]1CC[C@@H](CCn2cc(-c3ccccc3F)nn2)O[C@@H]1CO`, the AbsAC1 (concentration giving Tm-shift threshold 1.0) is 7.38 µM. `Nc1ccc(C(=O)Nc2ccc(OC(F)(F)C(F)F)c(NC(=O)c3ccc(N)cc3)c2)cc1`: the AbsAC1 (concentration giving Tm-shift threshold 1.0) is 6.85 µM. In the case of `O=[N+]([O-])c1ccc(S(=O)(=O)Nc2nnc(C(F)(F)F)s2)cc1` it was 4.67 µM; in that of `O=C(CCc1c[nH]c2ccccc12)Nc1ccc(Nc2cccnc2)cc1`, 4.36 µM. In the case of `Cn1c(C(=O)NCCc2c[nH]c3ccccc23)cc2sccc21` it was 2.76 µM; in that of `COc1ccc(-c2nc3ccc([N+](=O)[O-])cc3[nH]2)cc1`, 1.99 µM; in that of `C/C(=N\NC(=O)c1ccc(NS(=O)(=O)c2cccs2)cc1)c1cccs1`, 3.06 µM.
